Experimental data published in patent publication US20240309360A1, “TRANS-ACTIVATORS AND METHODS AND USE THEREOF” (THE GOVERNING COUNCIL OF THE UNIVERSITY OF TORONTO, priority 2021, published 2024).

Test system: EGFP reporter (7×TetO array, basal CMV promoter) in HEK293T reporter cell line
Test: TAD-seq pooled activation screen of 60-aa fragments fused to PYL1
Assay type: cell-based, human
Conditions: for Hit high GFP: high GFP population (top 1%); for logFC high GFP / logFC medium GFP: log 2 fold change of counts, 100 μM ABA 48 hours; for logFC high GFP: sorted high GFP cells (top 1%) vs unsorted cells; for logFC medium GFP: sorted medium GFP cells (top 2-5%) vs unsorted cells; for Hit medium GFP: medium GFP population (top 2-5%); call rule not given here
From the text: A fragment library of 75 activators identified in our screen was generated, using 60 amino-acid tiles every 20 aa such that every amino acid was represented by three different fragments (FIG. 3A). The pooled fragment library was fused to PYL1 and recruited to the same GFP reporter used in the original ORFeome screen (FIG. 3A). […] The GFP positive population was sorted into two independent replicates, and fragments in each population were quantified by sequencing. However, in contrast to the ORFeome screen, both high GFP cells (top 1%) and medium GFP cells (top 2-5%) were sorted to potentially identify transactivators of different strength.
Activation domain tiling library generation. A tiling library was generated from 75 proteins identified as activators in the ORFeome screen. Oligonucleotides containing a 5′ adapter […] (SEQ ID NO: 23) and a 3′ adapter […] (SEQ ID NO: 24) to generate a 5′ adapter ([…]) (SEQ ID NO: 11) and a 3′ adapter ([…]) (SEQ ID NO: 12) were synthesized as pooled libraries (Twist Biosciences). 6×50 μl PCR reactions were set up using NEBNext Ultra II Q5 master mix (New England Biolabs) with 5 nM oligos as template. PCR conditions were optimized to find the lowest cycle with a clean visible product at the expected 300 bp length. The thermocycling condition was an initial 30 s at 98° C., then 2 cycles of 98° C. for 10 s, 63° C. for 20 s, and 72° C. for 15 s, followed by 10 more cycles of 98° C. for 10 s and 72° C. for 30 s with a final extension at 72° C. for 5 min. Primers were designed to have Gateway compatible flanking sequences. The resulting libraries were gel extracted by QIAgen gel extraction kit after loading on a 2% TAE gel for 2 hrs at 60V and subsequently cloned into pDONR221 using 20 separate BP reactions in total of 5 μl reactions. The entry plasmid pool was transformed after an overnight reaction into DHSalpha competent E. coli and incubated overnight on LB agar plates containing kanamycin ([…]). Colonies were collected and plasmid DNA purified. 20 LR reactions were then set up as described in the previous section. Each reaction was transformed into NEB 10-beta chemically competent E. coli and grown on LB agar plates containing carbenicillin ([…]) overnight at 30° C. Colonies were counted to ensure >200-fold coverage at each step of cloning, pooled and maxiprepped.
Pooled activation screens. ORFeome and transactivation tiling libraries tagged at the C-terminus with PYL1 were packaged into lentiviral particles. A clonal EGFP reporter cell line stably co-expressing ABI-dCas9 and a gRNA targeting the promoter were transduced at low multiplicity of infection (MOI) with approximately 30% cell survival after puromycin (1 μg/mL) selection. Untransduced cells under the same condition were fully eliminated. Sufficient cells were transduced to maintain >500 fold coverage of the libraries. Recruitment was induced by treating cells with 100 μM abscisic acid (ABA, Sigma) for 48 hours. In parallel, a control batch of cells were treated with equal total volume of DMSO. Cells were then washed in PBS, treated with dissociation buffer (1 mM EDTA, 10 mM KCl, 150 mM NaCl, 5 mM sodium bicarbonate, 0.1% glucose) and resuspended in flow buffer (5 mM EDTA, 25 mM HEPES pH 7, 1% BSA, PBS). High GFP population for each library, top 1% for ORFeome and two bins of top 1% and the next 4% for the TAD screen, were sorted and their genomic DNA directly extracted using QIAmp DNA Blood Mini Kit (QIAGEN).
TAD sequencing. Performed nested PCR on the purified genomic DNA using primers targeting T7 promoter and PYL1 of the backbone vector in the first step creating a ˜470 bp product. Products of the first reaction were then pooled and amplified for an additional 10 steps using primers targeting outside the Gateway sites creating a ˜300 bp product. Libraries were quantified on Qubit dsDNA Broad Range kit and paired-end sequenced on an Illumina MIseq with a custom PAGE-purified R1 sequencing primer. […]

For “FAM22F-20: 60-aa TAD-seq fragment of FAM22F (PAETKVPEEIPPEVVQEYVDIMEELLGSHPGDTGEPEGQREKGKVEQPQEEDGITSDPGL; listed as Homo sapiens)”, the “Hit high GFP” value was “hit”, the “logFC high GFP” value was 3.214 and the “logFC medium GFP” value was 2.101. For the same substance, the “Hit medium GFP” value was “hit”.

In the case of “CSRNP1-28: 60-aa TAD-seq fragment of CSRNP1 (DNIEAPHFPLPGLSPPGDASSCFLESLMGFSEPAAEALDPFIDSQFEDTVPASLMEPVPV; listed as Homo sapiens)”, the “logFC high GFP” value is reported as 0.5029, the “logFC medium GFP” value is reported as 0.6955 and the “Hit medium GFP” value is reported as “hit”.

For “ELF4-1: 60-aa TAD-seq fragment of ELF4 (MAITLQPSDLIFEFASNGMDDDIHQLEDPSVFPAVIVEQVPYPDLLHLYSGLELDDVHNG; listed as Homo sapiens)”, the “logFC high GFP” value was 0.6626, the “logFC medium GFP” value was 0.7287 and the “Hit medium GFP” value was “hit”.

For “JAZF1-1: 60-aa TAD-seq fragment of JAZF1 (MTGIAAASFFSNTCRFGGCGLHFPTLADLIEHIEDNHIDTDPRVLEKQELQQPTYVALSY; listed as Homo sapiens)”, the “logFC high GFP” value was 0.2848, the “logFC medium GFP” value was 0.6639 and the “Hit medium GFP” value was “hit”.

For “C3orf62-11: 60-aa TAD-seq fragment of C3orf62 (NHMCGHCQDSPFKEEAWALLMDKSPQKATDADPGSLKQAFDDHNIVETVLDLEEDYNVMT; listed as Homo sapiens) [Fragment C3orf62-11]”, the “Hit high GFP” value was “hit”, the “logFC high GFP” value was 6.023 and the “logFC medium GFP” value was −0.5261.

With “KLF15-6: 60-aa TAD-seq fragment of KLF15 (GPVAWGPWRRAAAPVKGEHFCLPEFPLGDPDDVPRPFQPTLEEIEEFLEENMEPGVKEVP; listed as Homo sapiens)” the “Hit high GFP” value was “hit”, the “logFC high GFP” value was 2.467 and the “logFC medium GFP” value was 1.202. For the same substance, the “Hit medium GFP” value was “hit”.

“HOXA2-4: 60-aa TAD-seq fragment of HOXA2 (PGSHPRHGAGGRPKPSPAGSRGSPVPAGALQPPEYPWMKEKKAAKKTALLPAAAAAATAA; listed as Homo sapiens)” was tested, and the “logFC high GFP” value was 1.664, the “logFC medium GFP” value was 1.595 and the “Hit medium GFP” value was “hit”.

In the case of “ATOH1-1: 60-aa TAD-seq fragment of ATOH1 (MSRLLHAEEWAEVKELGDHHRQPQPHHLPQPPPPPQPPATLQAREHPVYPPELSLLDSTD; listed as Homo sapiens)”, the “logFC high GFP” value is reported as 0.7218, the “logFC medium GFP” value is reported as 0.9194 and the “Hit medium GFP” value is reported as “hit”.

In the case of “KLF7-2: 60-aa TAD-seq fragment of KLF7 (YFSALPSLEETWQQTCLELERYLQTEPRRISETFGEDLDCFLHASPPPCIEESFRRLDPL; listed as Homo sapiens)”, the “logFC high GFP” value is reported as 1.431, the “logFC medium GFP” value is reported as 1.165 and the “Hit medium GFP” value is reported as “hit”.

With “HSF1-25: 60-aa TAD-seq fragment of HSF1 (AQPLFLLDPGSVDTGSNDLPVLFELGEGSYFSEGDGFAEDPTISLLTGSEPPKAKDPTVS; listed as Homo sapiens)” the “logFC high GFP” value was 0.7725, the “logFC medium GFP” value was 1.153 and the “Hit medium GFP” value was “hit”.

With “SERTAD1-10: 60-aa TAD-seq fragment of SERTAD1 (IDTSMYDNELWAPASEGLKPGPEDGPGKEEAPELDEAELDYLMDVLVGTQALERPPGPGR; listed as Homo sapiens)” the “logFC high GFP” value was 0.2349, the “logFC medium GFP” value was 0.8385 and the “Hit medium GFP” value was “hit”.

“BTBD18-24: 60-aa TAD-seq fragment of BTBD18 (IDCREPYAFDTALLEQPCEAEEYRITSAAATSELEEILDFMLCGSDIEPPIGSLESPGAE; listed as Homo sapiens)” was tested, and the “logFC high GFP” value was 1.246, the “logFC medium GFP” value was 0.8561 and the “Hit medium GFP” value was “hit”.

“HOXA2-6: 60-aa TAD-seq fragment of HOXA2 (KKAAKKTALLPAAAAAATAAATGPACLSHKESLEIADGSGGGSRRLRTAYTNTQLLELEK; listed as Homo sapiens)” was tested, and the “logFC high GFP” value was 1.951, the “logFC medium GFP” value was 1.738 and the “Hit medium GFP” value was “hit”.

For “ATMIN-32: 60-aa TAD-seq fragment of ATMIN (ETQTMSSGFETLGSLFFTSNETQTAMDDFLLADLAWNTMESQFSSVETQTSAEPHTVSNF; listed as Homo sapiens)”, the “logFC high GFP” value was 0.6355, the “logFC medium GFP” value was 0.8198 and the “Hit medium GFP” value was “hit”.

In the case of “NEUROG3-5: 60-aa TAD-seq fragment of NEUROG3 (RRSRRKKANDRERNRMHNLNSALDALRGVLPTFPDDAKLTKIETLRFAHNYIWALTQTLR; listed as Homo sapiens)”, the “logFC high GFP” value is reported as 0.06039, the “logFC medium GFP” value is reported as 0.6713 and the “Hit medium GFP” value is reported as “hit”.

With “ELF4-2: 60-aa TAD-seq fragment of ELF4 (DDIHQLEDPSVFPAVIVEQVPYPDLLHLYSGLELDDVHNGIITDGTLCMTQDQILEGSFL; listed as Homo sapiens)” the “Hit high GFP” value was “hit”, the “logFC high GFP” value was 1.467 and the “logFC medium GFP” value was 1.364. The “Hit medium GFP” value was “hit”.

For “DDIT3-1: 60-aa TAD-seq fragment of DDIT3 (MAAESLPFSFGTLSSWELEAWYEDLQEVLSSDENGGTYVSPPGNEEEESKIFTTLDPASL; listed as Homo sapiens)”, the “Hit high GFP” value was “hit”, the “logFC high GFP” value was 2.373 and the “logFC medium GFP” value was 1.502. For the same substance, the “Hit medium GFP” value was “hit”.

In the case of “MYCBP-1: 60-aa TAD-seq fragment of MYCBP (MAHYKAADSKREQFRRYLEKSGVLDTLTKVLVALYEEPEKPNSALDFLKHHLGAATPENP; listed as Homo sapiens)”, the “logFC high GFP” value is reported as 1.017, the “logFC medium GFP” value is reported as 0.73 and the “Hit medium GFP” value is reported as “hit”.

“ZXDC-13: 60-aa TAD-seq fragment of ZXDC (YLESGGSARTDYRAIQLAKEKKQRGAGSNAGASQSTQRKIKEGKMSPPHFHASQNSWLCG; listed as Homo sapiens)” was tested, and the “Hit high GFP” value was “hit”, the “logFC high GFP” value was 2.377 and the “logFC medium GFP” value was 1.734. The “Hit medium GFP” value was “hit”.

With “FAM22F-19: 60-aa TAD-seq fragment of FAM22F (PRPQRPAETNAHLPPPRPQRPAETKVPEEIPPEVVQEYVDIMEELLGSHPGDTGEPEGQR; listed as Homo sapiens)” the “logFC high GFP” value was 0.9998, the “logFC medium GFP” value was 0.9884 and the “Hit medium GFP” value was “hit”.

With “NPAS4-34: 60-aa TAD-seq fragment of NPAS4 (PLGGLEPLDSNLSLSGAGPPVLSLDLKPWKCQELDFLADPDNMFLEETPVEDIFMDLSTP; listed as Homo sapiens)” the “logFC high GFP” value was 0.946, the “logFC medium GFP” value was 0.9186 and the “Hit medium GFP” value was “hit”.

For “MYCL1-1: 60-aa TAD-seq fragment of MYCL1 (MDYDSYQHYFYDYDCGEDFYRSTAPSEDIWKKFELVPSPPTSPPWGLGPGAGDPAPGIGP; listed as Homo sapiens)”, the “logFC high GFP” value was 1.137, the “logFC medium GFP” value was 0.7968 and the “Hit medium GFP” value was “hit”.

With “NEUROD1-6: 60-aa TAD-seq fragment of NEUROD1 (LRRMKANARERNRMHGLNAALDNLRKVVPCYSKTQKLSKIETLRLAKNYIWALSEILRSG; listed as Homo sapiens)” the “logFC high GFP” value was 0.6708, the “logFC medium GFP” value was 0.9533 and the “Hit medium GFP” value was “hit”.

With “ATF6B-1: 60-aa TAD-seq fragment of ATF6B (MAELMLLSEIADPTRFFTDNLLSPEDWGLQNSTLYSGLDEVAEEQTQLFRCPEQDVPFDG; listed as Homo sapiens)” the “Hit high GFP” value was “hit”, the “logFC high GFP” value was 1.917 and the “logFC medium GFP” value was 0.9931. For the same substance, the “Hit medium GFP” value was “hit”.
